Numbers after ± are expanded uncertainties.
Test: mn = molality of the nth substance listed, in mol/kg
Details: 101.3 kPa, Liquid, Vibrating tube method

C[C@H](O)C(=O)[O-].C[C@H](O)C(=O)[O-].C[C@H](O)C(=O)[O-].[Al+3] [aluminium L-lactate] + O
Details	mass density [kg/m3]
278.15 K, m1 = 0.0016	1000.31 ± 0.42
278.15 K, m1 = 0.0033	1000.54 ± 0.42
278.15 K, m1 = 0.0065	1000.95 ± 0.42
278.15 K, m1 = 0.016	1002.1 ± 0.42
278.15 K, m1 = 0.0281	1003.54 ± 0.42
278.15 K, m1 = 0.0521	1006.26 ± 0.42
278.15 K, m1 = 0.0995	1011.5 ± 0.42
278.15 K, m1 = 0.1996	1022.22 ± 0.42
278.15 K, m1 = 0.3045	1032.98 ± 0.42
278.15 K, m1 = 0.4021	1042.51 ± 0.42
278.15 K, m1 = 0.5059	1052.17 ± 0.42
278.15 K, m1 = 0.5991	1060.59 ± 0.42
278.15 K, m1 = 0.7147	1070.67 ± 0.42
283.15 K, m1 = 0.0016	1000.07 ± 0.45
283.15 K, m1 = 0.0033	1000.29 ± 0.42
283.15 K, m1 = 0.0065	1000.7 ± 0.42
283.15 K, m1 = 0.016	1001.82 ± 0.42
283.15 K, m1 = 0.0281	1003.24 ± 0.42
283.15 K, m1 = 0.0521	1005.92 ± 0.42
283.15 K, m1 = 0.0995	1011.1 ± 0.42
283.15 K, m1 = 0.1996	1021.72 ± 0.42
283.15 K, m1 = 0.3045	1032.35 ± 0.42
283.15 K, m1 = 0.4021	1041.79 ± 0.42
283.15 K, m1 = 0.5059	1051.34 ± 0.42
283.15 K, m1 = 0.5991	1059.68 ± 0.42
283.15 K, m1 = 0.7147	1069.65 ± 0.42
288.15 K, m1 = 0.0016	999.46 ± 0.45
288.15 K, m1 = 0.0033	999.69 ± 0.42
288.15 K, m1 = 0.0065	1000.09 ± 0.42
288.15 K, m1 = 0.016	1001.21 ± 0.42
288.15 K, m1 = 0.0281	1002.6 ± 0.42
288.15 K, m1 = 0.0521	1005.25 ± 0.42
288.15 K, m1 = 0.0995	1010.37 ± 0.42
288.15 K, m1 = 0.1996	1020.89 ± 0.42
288.15 K, m1 = 0.3045	1031.43 ± 0.42
288.15 K, m1 = 0.4021	1040.77 ± 0.42
288.15 K, m1 = 0.5059	1050.24 ± 0.42
288.15 K, m1 = 0.5991	1058.5 ± 0.42
288.15 K, m1 = 0.7147	1068.38 ± 0.42
293.15 K, m1 = 0.0016	998.56 ± 0.44
293.15 K, m1 = 0.0033	998.78 ± 0.42
293.15 K, m1 = 0.0065	999.18 ± 0.42
293.15 K, m1 = 0.016	1000.27 ± 0.42
293.15 K, m1 = 0.0281	1001.67 ± 0.42
293.15 K, m1 = 0.0521	1004.3 ± 0.42
293.15 K, m1 = 0.0995	1009.39 ± 0.42
293.15 K, m1 = 0.1996	1019.81 ± 0.42
293.15 K, m1 = 0.3045	1030.26 ± 0.42
293.15 K, m1 = 0.4021	1039.52 ± 0.42
293.15 K, m1 = 0.5059	1048.92 ± 0.42
293.15 K, m1 = 0.5991	1057.11 ± 0.42
293.15 K, m1 = 0.7147	1066.89 ± 0.42
298.15 K, m1 = 0.0016	997.37 ± 0.44
298.15 K, m1 = 0.0033	997.6 ± 0.42
298.15 K, m1 = 0.0065	997.99 ± 0.42
298.15 K, m1 = 0.016	999.09 ± 0.42
298.15 K, m1 = 0.0281	1000.46 ± 0.42
298.15 K, m1 = 0.0521	1003.09 ± 0.42
298.15 K, m1 = 0.0995	1008.13 ± 0.42
298.15 K, m1 = 0.1996	1018.48 ± 0.42
298.15 K, m1 = 0.3045	1028.85 ± 0.42
298.15 K, m1 = 0.4021	1038.07 ± 0.42
298.15 K, m1 = 0.5059	1047.37 ± 0.42
298.15 K, m1 = 0.5991	1055.51 ± 0.42
298.15 K, m1 = 0.7147	1065.25 ± 0.42
303.15 K, m1 = 0.0016	996 ± 0.44
303.15 K, m1 = 0.0033	996.22 ± 0.42
303.15 K, m1 = 0.0065	996.61 ± 0.42
303.15 K, m1 = 0.016	997.67 ± 0.42
303.15 K, m1 = 0.0281	999.04 ± 0.42
303.15 K, m1 = 0.0521	1001.64 ± 0.42
303.15 K, m1 = 0.0995	1006.64 ± 0.42
303.15 K, m1 = 0.1996	1016.92 ± 0.42
303.15 K, m1 = 0.3045	1027.23 ± 0.42
303.15 K, m1 = 0.4021	1036.37 ± 0.42
303.15 K, m1 = 0.5059	1045.62 ± 0.42
303.15 K, m1 = 0.5991	1053.7 ± 0.42
303.15 K, m1 = 0.7147	1063.36 ± 0.42
308.15 K, m1 = 0.0016	994.37 ± 0.44
308.15 K, m1 = 0.0033	994.59 ± 0.42
308.15 K, m1 = 0.0065	994.98 ± 0.42
308.15 K, m1 = 0.016	996.04 ± 0.42
308.15 K, m1 = 0.0281	997.4 ± 0.42
308.15 K, m1 = 0.0521	999.99 ± 0.42
308.15 K, m1 = 0.0995	1004.96 ± 0.42
308.15 K, m1 = 0.1996	1015.17 ± 0.42
308.15 K, m1 = 0.3045	1025.41 ± 0.42
308.15 K, m1 = 0.4021	1034.51 ± 0.42
308.15 K, m1 = 0.5059	1043.7 ± 0.42
308.15 K, m1 = 0.5991	1051.73 ± 0.42
308.15 K, m1 = 0.7147	1061.35 ± 0.42
313.15 K, m1 = 0.0016	992.55 ± 0.43
313.15 K, m1 = 0.0033	992.76 ± 0.42
313.15 K, m1 = 0.0065	993.14 ± 0.42
313.15 K, m1 = 0.016	994.21 ± 0.42
313.15 K, m1 = 0.0281	995.56 ± 0.42
313.15 K, m1 = 0.0521	998.12 ± 0.42
313.15 K, m1 = 0.0995	1003.06 ± 0.41
313.15 K, m1 = 0.1996	1013.23 ± 0.42
313.15 K, m1 = 0.3045	1023.41 ± 0.42
313.15 K, m1 = 0.4021	1032.44 ± 0.42
313.15 K, m1 = 0.5059	1041.59 ± 0.42
313.15 K, m1 = 0.5991	1049.59 ± 0.42
313.15 K, m1 = 0.7147	1059.14 ± 0.42
318.15 K, m1 = 0.0016	990.54 ± 0.43
318.15 K, m1 = 0.0033	990.75 ± 0.42
318.15 K, m1 = 0.0065	991.13 ± 0.42
318.15 K, m1 = 0.016	992.2 ± 0.42
318.15 K, m1 = 0.0281	993.53 ± 0.42
318.15 K, m1 = 0.0521	996.09 ± 0.42
318.15 K, m1 = 0.0995	1001 ± 0.41
318.15 K, m1 = 0.1996	1011.1 ± 0.41
318.15 K, m1 = 0.3045	1021.23 ± 0.42
318.15 K, m1 = 0.4021	1030.23 ± 0.42
318.15 K, m1 = 0.5059	1039.33 ± 0.42
318.15 K, m1 = 0.5991	1047.3 ± 0.42
318.15 K, m1 = 0.7147	1056.79 ± 0.42
323.15 K, m1 = 0.0016	988.37 ± 0.43
323.15 K, m1 = 0.0033	988.56 ± 0.42
323.15 K, m1 = 0.0065	988.95 ± 0.42
323.15 K, m1 = 0.016	990 ± 0.42
323.15 K, m1 = 0.0281	991.34 ± 0.42
323.15 K, m1 = 0.0521	993.87 ± 0.42
323.15 K, m1 = 0.0995	998.76 ± 0.41
323.15 K, m1 = 0.1996	1008.81 ± 0.41
323.15 K, m1 = 0.3045	1018.9 ± 0.42
323.15 K, m1 = 0.4021	1027.86 ± 0.42
323.15 K, m1 = 0.5059	1036.92 ± 0.42
323.15 K, m1 = 0.5991	1044.84 ± 0.42
323.15 K, m1 = 0.7147	1054.31 ± 0.42
328.15 K, m1 = 0.0016	986.02 ± 0.43
328.15 K, m1 = 0.0033	986.21 ± 0.42
328.15 K, m1 = 0.0065	986.59 ± 0.42
328.15 K, m1 = 0.016	987.65 ± 0.42
328.15 K, m1 = 0.0281	988.97 ± 0.42
328.15 K, m1 = 0.0521	991.49 ± 0.42
328.15 K, m1 = 0.0995	996.36 ± 0.41
328.15 K, m1 = 0.1996	1006.37 ± 0.41
328.15 K, m1 = 0.3045	1016.42 ± 0.41
328.15 K, m1 = 0.4021	1025.32 ± 0.42
328.15 K, m1 = 0.5059	1034.36 ± 0.42
328.15 K, m1 = 0.5991	1042.24 ± 0.42
328.15 K, m1 = 0.7147	1051.67 ± 0.42
333.15 K, m1 = 0.0016	983.53 ± 0.43
333.15 K, m1 = 0.0033	983.72 ± 0.42
333.15 K, m1 = 0.0065	984.09 ± 0.42
333.15 K, m1 = 0.016	985.14 ± 0.42
333.15 K, m1 = 0.0281	986.48 ± 0.42
333.15 K, m1 = 0.0521	988.97 ± 0.42
333.15 K, m1 = 0.0995	993.82 ± 0.41
333.15 K, m1 = 0.1996	1003.79 ± 0.41
333.15 K, m1 = 0.3045	1013.8 ± 0.41
333.15 K, m1 = 0.4021	1022.68 ± 0.41
333.15 K, m1 = 0.5059	1031.67 ± 0.42
333.15 K, m1 = 0.5991	1039.53 ± 0.42
333.15 K, m1 = 0.7147	1048.93 ± 0.42
338.15 K, m1 = 0.0016	980.88 ± 0.42
338.15 K, m1 = 0.0033	981.06 ± 0.42
338.15 K, m1 = 0.0065	981.45 ± 0.42
338.15 K, m1 = 0.016	982.49 ± 0.42
338.15 K, m1 = 0.0281	983.81 ± 0.42
338.15 K, m1 = 0.0521	986.3 ± 0.42
338.15 K, m1 = 0.0995	991.13 ± 0.41
338.15 K, m1 = 0.1996	1001.06 ± 0.41
338.15 K, m1 = 0.3045	1011.04 ± 0.41
338.15 K, m1 = 0.4021	1019.88 ± 0.41
338.15 K, m1 = 0.5059	1028.85 ± 0.42
338.15 K, m1 = 0.5991	1036.68 ± 0.42
338.15 K, m1 = 0.7147	1046.04 ± 0.42
343.15 K, m1 = 0.0016	978.11 ± 0.41
343.15 K, m1 = 0.0033	978.27 ± 0.42
343.15 K, m1 = 0.0065	978.67 ± 0.42
343.15 K, m1 = 0.016	979.71 ± 0.42
343.15 K, m1 = 0.0281	981.02 ± 0.42
343.15 K, m1 = 0.0521	983.51 ± 0.42
343.15 K, m1 = 0.0995	988.33 ± 0.41
343.15 K, m1 = 0.1996	998.2 ± 0.41
343.15 K, m1 = 0.3045	1008.14 ± 0.41
343.15 K, m1 = 0.4021	1017.05 ± 0.41
343.15 K, m1 = 0.5059	1025.9 ± 0.42
343.15 K, m1 = 0.5991	1033.73 ± 0.42
343.15 K, m1 = 0.7147	1043.05 ± 0.42

Source: the NIST ThermoML archive (doi:10.1016/j.jct.2016.03.003)
